Reference: patent US7384927B2, “Alkylated porphyrins as pesticides acting both in the presence and absence of light” (priority 2003, dated 2008)

How the values were obtained:
Format in all cases: in vivo
[1] = tested on: Stomoxis calcitrans flies; test: Insecticidal action in the dark: fly survival after porphyrin bait; conditions: fed 24 h, survival 12 h after change to porphyrin-free bait
Method: (§1) These flies were then used in the various experimental sessions. […] The number of survivors was evaluated 12 h after switching from administration of a porphyrin-containing bait to a porphyrin-free bait. In none of the experiments was mortality or any apparent toxic effect observed in control flies (flies not fed with porphyrin, see survival at 0 μM porphyrin concentration).

[2] = tested on: Bactrocera oleae flies; test: as above; conditions: fed 24 h, survival 12 h after change to porphyrin-free bait
Method: as §1

[3] = tested on: Stomoxis calcitrans (stable fly); test: Release of alkylated porphyrin from flies after feeding with bait interrupted; conditions: S. calcitrans, 1.25 μM porphyrin in the bait
Method: (§2) An appropriate number of flies (50 flies per each experiment) was caged in 115×55×70 mm Plexiglas cages with several holes (ø=0.5 mm) and starved for 36 h. Then, depending on the protocol to be adopted for each specific experiment, the flies were fed with the bait (10% sucrose and 1% autolysed yeast in neutral aqueous solution), which was either porphyrin-free or added with a predetermined concentration of the porphyrin. These flies were then used in the various experimental sessions.
(§3) At predetermined times, the flies were sacrificed by freezing; the dead flies were then homogenized with a Polytron in 10 ml of a 2% aqueous solution of sodium dodecylsulphate (SDS). The suspension was centrifuged for 10 min at 2,000 rpm, the pellet was discarded and known aliquots of the supernatant were diluted by means of a chloroform/methanol binary mixture (1/2, v/v). The porphyrin concentration was measured by reading the fluorescence emitted at wavelengths above 630 nm and interpolating the emission intensity with a calibration plot obtained with known amounts of the porphyrin. The results were expressed as nanomoles of porphyrin recovered per fly.

[4] = tested on: Ceratitis capitata (fruit fly); test: as above; conditions: C. capitata, 1.25 μM porphyrin in the bait
Method: as §2, §3

[5] = tested on: Bactrocera oleae (olive fly); test: as above; conditions: B. oleae, 1.25 μM porphyrin in the bait
Method: as §2, §3

[6] = tested on: Ceratitis capitata flies; test: Insecticidal action in the dark: fly survival after porphyrin bait; conditions: dark, fed 24 h, survival 12 h after change to porphyrin-free bait
Summary of the method: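 Flies fed porphyrin-containing bait, then switched to porphyrin-free bait; survivors counted 12 h after the switch, in darkness. Control flies received bait without porphyrin (0 μM).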

[7] = tested on: Stomoxis calcitrans (stable fly); test: Uptake of alkylated porphyrins by flies fed porphyrin-containing bait; conditions: S. calcitrans
Method: (§4) Porphyrins: • a) meso[tri(N-methyl-pyridyl), mono(N-dodecyl-pyridyl)]porphine (abbr.: C12) • b) meso[tri(N-methyl-pyridyl), mono(N-tetradecyl-pyridyl)]porphine (abbr.: C14) • c) meso[tri(N-methyl-pyridyl), mono(N-octadecyl-pyridyl)]porphine (abbr.: C18) Bait: Aqueous solution containing 10% sucrose and 1% autolysed yeast Flies: • a) Ceratitis capitata (fruit fly) age: 1 week; weight: 5-6 mg • b) Bactrocera oleae (olive fly) age: 10 days; weight: 4-4.5 mg • c) Stomoxis calcitrans (stable fly) age: 10 days; weight: 12 mg Irradiation: • a) High pressure halogen lamp, equipped with infrared and UV filters, emission 360-850 nm, operated at intensities in the 760-2,000 μE s^−1m^−2 range • b) Sunlight, mid June at Padua latitude, average intensity of […] μE s^−1m^−2 with minimum and maximum values of 950 and, respectively, 1,380 μE s^−1m^−2
as §2, §3

[8] = tested on: Ceratitis capitata (fruit fly); test: as above; conditions: C. capitata
Method: as §4, §2, §3

[9] = tested on: Bactrocera oleae (olive fly); test: as above; conditions: B. oleae
Method: as §4, §2, §3

[10] = tested on: Ceratitis capitata flies; test: Photoinsecticidal action: fly survival after bait and sunlight irradiation; conditions: 3 μM in bait, 12 h after feeding, survival 1 h after irradiation
[11] = exposure time to bait 3 h, porphyrin in bait 1.24 μM
[12] = exposure time to bait 12 h, porphyrin in bait 1.24 μM
[13] = exposure time to bait 24 h, porphyrin in bait 1.24 μM
[14] = porphyrin concentration in bait 0.75 (μmoles), feeding 24 h
[15] = porphyrin concentration in bait 1.25 (μmoles), feeding 24 h
[16] = porphyrin concentration in bait 2.10 (μmoles), feeding 24 h
[17] = porphyrin concentration in bait 3.50 (μmoles), feeding 24 h
[18] = porphyrin concentration in bait 6.00 (μmoles), feeding 24 h

Question: With `CCCCCCCCCCCCCCCCCC[n+]1ccc(-c2c3nc(c(-c4cc[n+](C)cc4)c4ccc([nH]4)c(-c4cc[n+](C)cc4)c4nc(c(-c5cc[n+](C)cc5)c5ccc2[nH]5)C=C4)C=C3)cc1` [C18, meso[tri(N-methyl-pyridyl), mono(N-octadecyl-pyridyl)]porphine] as the compound, how does the “Survival (% of control untreated flies)” value ([1]; 0.75 μM in bait) read?
Answer: The value was 100 % of control untreated flies.

Question: And the “Survival (% of control untreated flies)” value ([1]; 1.25 μM in bait)?
Answer: The value was 79 % of control untreated flies.

Question: And the “Survival (% of control untreated flies)” value ([1]; 2.10 μM in bait)?
Answer: Its value is 45 % of control untreated flies.

Question: What about the “Survival (% of control untreated flies)” value ([1]; 3.00 μM in bait) of the same compound?
Answer: Its value is 24 % of control untreated flies.

Question: And the “Survival (% of control untreated flies)” value ([1]; 5.00 μM in bait)?
Answer: The value was 10 % of control untreated flies.

Question: And the “Survival (% of control untreated flies)” value ([1]; 8.10 μM in bait)?
Answer: The value was 0 % of control untreated flies.

Question: And the “Survival (% of control untreated flies)” value ([2]; 0.75 μM in bait)?
Answer: Its value is 100 % of control untreated flies.

Question: And the “Survival (% of control untreated flies)” value ([2]; 1.25 μM in bait)?
Answer: Its value is 100 % of control untreated flies.

Question: What about the “Survival (% of control untreated flies)” value ([2]; 2.10 μM in bait) of the same compound?
Answer: Its value is 53 % of control untreated flies.

Question: And the “Survival (% of control untreated flies)” value ([2]; 3.00 μM in bait)?
Answer: Its value is 39 % of control untreated flies.

Question: What about the “Survival (% of control untreated flies)” value ([2]; 5.00 μM in bait) of the same compound?
Answer: Its value is 16 % of control untreated flies.

Question: And the “Survival (% of control untreated flies)” value ([2]; 8.10 μM in bait)?
Answer: The value was 3 % of control untreated flies.

Question: And the “Recoveries (nmoles of porphyrin per fly), release” value ([3]; 12 h after feeding interrupted)?
Answer: The value was 4.2 nmoles of porphyrin per fly.

Question: And the “Recoveries (nmoles of porphyrin per fly), release” value ([3]; 24 h after feeding interrupted)?
Answer: Its value is 2.3 nmoles of porphyrin per fly.

Question: What about the “Recoveries (nmoles of porphyrin per fly), release” value ([3]; 48 h after feeding interrupted) of the same compound?
Answer: The value was 1.1 nmoles of porphyrin per fly.

Question: And the “Recoveries (nmoles of porphyrin per fly), release” value ([4]; 12 h after feeding interrupted)?
Answer: Its value is 3.7 nmoles of porphyrin per fly.

Question: And the “Recoveries (nmoles of porphyrin per fly), release” value ([4]; 24 h after feeding interrupted)?
Answer: Its value is 2.2 nmoles of porphyrin per fly.

Question: What about the “Recoveries (nmoles of porphyrin per fly), release” value ([4]; 48 h after feeding interrupted) of the same compound?
Answer: Its value is 1.0 nmoles of porphyrin per fly.

Question: And the “Recoveries (nmoles of porphyrin per fly), release” value ([5]; 12 h after feeding interrupted)?
Answer: Its value is 3.8 nmoles of porphyrin per fly.

Question: And the “Recoveries (nmoles of porphyrin per fly), release” value ([5]; 24 h after feeding interrupted)?
Answer: The value was 1.7 nmoles of porphyrin per fly.

Question: What about the “Recoveries (nmoles of porphyrin per fly), release” value ([5]; 48 h after feeding interrupted) of the same compound?
Answer: Its value is 0.6 nmoles of porphyrin per fly.

Question: What about the “Survival (% of control untreated flies)” value ([6]; 0.75 μM in bait) of the same compound?
Answer: Its value is 100 % of control untreated flies.

Question: What about the “Survival (% of control untreated flies)” value ([6]; 1.25 μM in bait) of the same compound?
Answer: The value was 42 % of control untreated flies.

Question: What about the “Survival (% of control untreated flies)” value ([6]; 2.10 μM in bait) of the same compound?
Answer: Its value is 29 % of control untreated flies.

Question: And the “Survival (% of control untreated flies)” value ([6]; 3.00 μM in bait)?
Answer: The value was 12 % of control untreated flies.

Question: What about the “Survival (% of control untreated flies)” value ([6]; 5.00 μM in bait) of the same compound?
Answer: Its value is 2 % of control untreated flies.

Question: And the “Survival (% of control untreated flies)” value ([6]; 8.10 μM in bait)?
Answer: Its value is 0 % of control untreated flies.

Question: And the “Recoveries (nmoles of porphyrin per fly)” value [7, 11]?
Answer: Its value is 3.2 nmoles of porphyrin per fly.

Question: What about the “Recoveries (nmoles of porphyrin per fly)” value [7, 12] of the same compound?
Answer: The value was 8.9 nmoles of porphyrin per fly.

Question: What about the “Recoveries (nmoles of porphyrin per fly)” value [7, 13] of the same compound?
Answer: The value was 9.2 nmoles of porphyrin per fly.

Question: What about the “Recoveries (nmoles of porphyrin per fly)” value [7, 14] of the same compound?
Answer: The value was 5.9 nmoles of porphyrin per fly.

Question: And the “Recoveries (nmoles of porphyrin per fly)” value [7, 15]?
Answer: The value was 9.2 nmoles of porphyrin per fly.

Question: And the “Recoveries (nmoles of porphyrin per fly)” value [7, 16]?
Answer: The value was 12.8 nmoles of porphyrin per fly.

Question: What about the “Recoveries (nmoles of porphyrin per fly)” value [7, 17] of the same compound?
Answer: Its value is 15.7 nmoles of porphyrin per fly.

Question: What about the “Recoveries (nmoles of porphyrin per fly)” value [7, 18] of the same compound?
Answer: The value was 15.7 nmoles of porphyrin per fly.

Question: What about the “Recoveries (nmoles of porphyrin per fly)” value [8, 11] of the same compound?
Answer: Its value is 3.1 nmoles of porphyrin per fly.

Question: What about the “Recoveries (nmoles of porphyrin per fly)” value [8, 12] of the same compound?
Answer: Its value is 6.6 nmoles of porphyrin per fly.

Question: What about the “Recoveries (nmoles of porphyrin per fly)” value [8, 13] of the same compound?
Answer: Its value is 7.5 nmoles of porphyrin per fly.

Question: And the “Recoveries (nmoles of porphyrin per fly)” value [8, 14]?
Answer: The value was 3.6 nmoles of porphyrin per fly.

Question: And the “Recoveries (nmoles of porphyrin per fly)” value [8, 15]?
Answer: Its value is 7.5 nmoles of porphyrin per fly.

Question: What about the “Recoveries (nmoles of porphyrin per fly)” value [8, 16] of the same compound?
Answer: The value was 8.3 nmoles of porphyrin per fly.

Question: And the “Recoveries (nmoles of porphyrin per fly)” value [8, 17]?
Answer: Its value is 14.3 nmoles of porphyrin per fly.

Question: What about the “Recoveries (nmoles of porphyrin per fly)” value [8, 18] of the same compound?
Answer: The value was 16.2 nmoles of porphyrin per fly.

Question: What about the “Recoveries (nmoles of porphyrin per fly)” value [9, 11] of the same compound?
Answer: Its value is 1.6 nmoles of porphyrin per fly.

Question: And the “Recoveries (nmoles of porphyrin per fly)” value [9, 12]?
Answer: Its value is 7.7 nmoles of porphyrin per fly.

Question: And the “Recoveries (nmoles of porphyrin per fly)” value [9, 13]?
Answer: Its value is 8.9 nmoles of porphyrin per fly.

Question: And the “Recoveries (nmoles of porphyrin per fly)” value [9, 14]?
Answer: Its value is 5.2 nmoles of porphyrin per fly.

Question: And the “Recoveries (nmoles of porphyrin per fly)” value [9, 15]?
Answer: The value was 8.9 nmoles of porphyrin per fly.

Question: What about the “Recoveries (nmoles of porphyrin per fly)” value [9, 16] of the same compound?
Answer: The value was 9.7 nmoles of porphyrin per fly.

Question: What about the “Recoveries (nmoles of porphyrin per fly)” value [9, 17] of the same compound?
Answer: The value was 12.0 nmoles of porphyrin per fly.

Question: What about the “Recoveries (nmoles of porphyrin per fly)” value [9, 18] of the same compound?
Answer: Its value is 12.9 nmoles of porphyrin per fly.

Question: What about the “Survival (% of control untreated flies)” value ([10]; sunlight (average 1150 μE s^−1m^−2) 15 min) of the same compound?
Answer: Its value is 80 % of control untreated flies.

Question: And the “Survival (% of control untreated flies)” value ([10]; sunlight (average 1150 μE s^−1m^−2) 30 min)?
Answer: The value was 75 % of control untreated flies.

Question: And the “Survival (% of control untreated flies)” value ([10]; sunlight (average 1150 μE s^−1m^−2) 45 min)?
Answer: Its value is 61 % of control untreated flies.

Question: And the “Survival (% of control untreated flies)” value ([10]; sunlight (average 1150 μE s^−1m^−2) 60 min)?
Answer: Its value is 31 % of control untreated flies.
